In patent publication US20230257715A1, “COMPOSITIONS AND METHODS FOR REGULATING ENTEROENDOCRINE CELL DIFFERENTIATION AND USES THEREOF” (The Children's Medical Center Corporation, priority 2020, published 2023):

B1: betacellulin (protein, UniProt P35070 32-111, looked up)
Betacellulin: DGNSTRSPETNGLLCGDPEENCAATTTQSKRKGHFSRCPKQYKHYCIKGRCRFVVAEQTPSCVCDEGYIGARCERVDLFY
modifications: Betacellulin
notes: a ligand of both EGFR and the ErbB4 receptor

Assays:
[1] = test system: human duodenal enteroids; experiment: qPCR analysis of enteroendocrine and lineage markers in enteroids; type: cell-based; settings: for EE cell marker expression on inclusion in DM: compared with GM and DM without betacellulin or PF, qPCR
Text: For differentiation, enteroids were passaged and grown in GM for two days, to allow for ISC expansion, after which the organoids were transitioned to tissue-specific differentiation media (DM) with additional small molecules added as described (TABLE 1A and TABLE 1B). Media was changed every two days, with Tubastatin A being removed after the second day of differentiation. Enteroids and rectoids were taken for analysis after 14 days.
Total RNA was purified from individual wells using TRI®Reagent (Sigma) and the Direct-zol™ RNA kit (Zymo Research), following the manufacturer's protocol. RNA concentration was determined using a NanoDrop™ 1000 spectrophotometer (Life Technologies). RNA was treated with DNAse (Promega) and reverse transcribed using the High-Capacity cDNA Reverse Transcription Kit (Life Technologies). Gene expression analysis was then performed by Real Time quantitative PCR (qPCR) using a QuantStudio 6 Flex thermocycler (Life Technologies). Taqman primers from Life Technologies (TABLE 3) were used. 18S transcripts were used as the internal control and data were expressed using the 2^−ddCt method with Ct limit of 40. Fold change, unless otherwise stated, was compared to total RNA derived from adult whole mucosal tissue biopsies.

[2] = literature (Sathyapalan et al. 2010); cited from earlier work
[3] = test system: GATA4-NKX2-5; settings: in vitro, literature (Valimaki et al. 2017); cited from earlier work

Molecule	EE cell marker expression on inclusion in DM [1]	human serum GIP levels [2]	GATA4-NKX2-5 transcriptional activity [3]	EE lineage marker mRNA expression when added to DM (qPCR) ([1]; compared to enteroids grown in G2D12, FIG. 2.1A)
Nc1ccc(-c2cnc(N)c(-c3ccc(Cl)cc3)c2)cn1 [PF, PF06260933]	increased expression of EE cell markers			
Cc1c(C(=O)NN2CCCCC2)nn(-c2ccc(Cl)cc2Cl)c1-c1ccc(Cl)cc1 [Rim, rimonabant]		increase human serum GIP levels	increase the activity of GATA4-NKX2-5 transcriptional activity in vitro	induced expression of multiple EE lineage markers (CHGA, NEUROD1, NEUROG3, SST, and GIP) when added to DM, with Rim having a much larger effect
B1	increased expression of EE cell markers			
